According to PMC5025758 (Nature Communications, 2016):

How the values were obtained:
COX-2 = biological target: T1, COX-2 (Homo sapiens, UniProt P35354); test: biochemical; design: off-target selectivity panel, enzyme and kinase inhibition, pXC50; conditions: read-out: pXC50 (enzyme inhibition) (converted)
T1 construct: gene PTGS2
From the text: (§1) From the outset, GSK3011724A, an indazole sulfonamide (Fig. 1a), represented an attractive compound for early stage drug discovery based on its anti-mycobacterial potency, small size and moderate lipophilicity (Table 1). Further profiling in vitro using standard assays, such as the hERG ion channel and cytochrome P450 isoforms supported this view (Table 1). […] A description of this optimization effort along with a thorough discussion of the drug development potential and liabilities of this series will be the subject of a future publication.

LCK = LCK (Homo sapiens, UniProt P06239); test: biochemical; design: off-target selectivity panel, enzyme and kinase inhibition, pXC50; conditions: read-out: pXC50 (enzyme inhibition) (converted)
From the text: as §1

PDE3A = PDE3A (Homo sapiens, UniProt Q14432); test: biochemical; design: off-target selectivity panel, enzyme and kinase inhibition, pXC50; conditions: read-out: pXC50 (enzyme inhibition) (converted)
From the text: as §1

Acetylcholinesterase = biological target: T2, Acetylcholinesterase (Homo sapiens, UniProt P22303); test: biochemical; design: off-target selectivity panel, enzyme and kinase inhibition, pXC50; conditions: read-out: pXC50 (enzyme inhibition) (converted)
T2 construct: gene ACHE
From the text: as §1

PI3Kγ = biological target: T3, PI3Kγ (Homo sapiens, UniProt P48736); test: biochemical; design: off-target selectivity panel, enzyme and kinase inhibition, pXC50; conditions: read-out: pXC50 (enzyme inhibition) (converted)
T3 construct: gene PIK3CG
From the text: as §1

Histamine H1 = biological target: T4, Histamine H1 (Homo sapiens, UniProt P35367); test: cell-based; design: off-target selectivity panel, receptor antagonist, channel blocker or transporter inhibition mode, pXC50; conditions: antagonist mode; read-out: pXC50 (antagonist) (converted)
T4 construct: gene HRH1
From the text: as §1

Serotonin 5HT3 = biological target: T5, Serotonin 5HT3 (Homo sapiens, UniProt P46098); test: cell-based; design: off-target selectivity panel, receptor antagonist, channel blocker or transporter inhibition mode, pXC50; conditions: read-out: pXC50 (blocker / transporter inhibition) (converted)
T5 construct: gene HTR3A
From the text: as §1

Dopamine D2 = biological target: T6, Dopamine D2 (Homo sapiens, UniProt P14416); test: cell-based; design: off-target selectivity panel, receptor antagonist, channel blocker or transporter inhibition mode, pXC50; conditions: antagonist mode; read-out: pXC50 (antagonist) (converted)
T6 construct: gene DRD2
From the text: as §1

OATP1B1 = biological target: T7, OATP1B1 (Homo sapiens, UniProt Q9Y6L6); test: cell-based; design: off-target selectivity panel, receptor antagonist, channel blocker or transporter inhibition mode, pXC50; conditions: read-out: pXC50 (blocker / transporter inhibition) (converted)
T7 construct: gene SLCO1B1
From the text: as §1

Muscarine M1 = biological target: T8, Muscarine M1 (Homo sapiens, UniProt P11229); test: cell-based; design: off-target selectivity panel, receptor antagonist, channel blocker or transporter inhibition mode, pXC50; conditions: antagonist mode; read-out: pXC50 (antagonist) (converted)
T8 construct: gene CHRM1
From the text: as §1

KCNQ1/minK = biological target: T9, KCNQ1/minK (Homo sapiens, UniProt P15382+P51787); test: cell-based; design: off-target selectivity panel, receptor antagonist, channel blocker or transporter inhibition mode, pXC50; conditions: read-out: pXC50 (blocker / transporter inhibition) (converted)
T9 construct: gene KCNE1
From the text: as §1

NMDA Channel (NR2B) = biological target: T10, NMDA Channel (NR2B) (Homo sapiens, UniProt Q13224); test: cell-based; design: off-target selectivity panel, receptor antagonist, channel blocker or transporter inhibition mode, pXC50; conditions: read-out: pXC50 (blocker / transporter inhibition) (converted)
T10 construct: gene GRIN2B
From the text: as §1

Adrenergic β2 = biological target: T11, Adrenergic β2 (Homo sapiens, UniProt P07550); test: cell-based; design: off-target selectivity panel, receptor antagonist, channel blocker or transporter inhibition mode, pXC50; conditions: antagonist mode; read-out: pXC50 (antagonist) (converted)
T11 construct: gene ADRB2
From the text: as §1

Serotonin 5HT1B = biological target: T12, Serotonin 5HT1B (Homo sapiens, UniProt P28222); test: cell-based; design: off-target selectivity panel, receptor antagonist, channel blocker or transporter inhibition mode, pXC50; conditions: antagonist mode; read-out: pXC50 (antagonist) (converted)
T12 construct: gene HTR1B
From the text: as §1

Vasopressin V1a = biological target: T13, Vasopressin V1a (Homo sapiens, UniProt P37288); test: cell-based; design: off-target selectivity panel, receptor antagonist, channel blocker or transporter inhibition mode, pXC50; conditions: antagonist mode; read-out: pXC50 (antagonist) (converted)
T13 construct: gene AVPR1A
From the text: as §1

Kv1.5 = biological target: T14, Kv1.5 (Homo sapiens, UniProt P22460); test: cell-based; design: off-target selectivity panel, receptor antagonist, channel blocker or transporter inhibition mode, pXC50; conditions: read-out: pXC50 (blocker / transporter inhibition) (converted)
T14 construct: gene KCNA5
From the text: as §1

Neurokinin NK1 = biological target: T15, Neurokinin NK1 (Homo sapiens, UniProt P25103); test: cell-based; design: off-target selectivity panel, receptor antagonist, channel blocker or transporter inhibition mode, pXC50; conditions: antagonist mode; read-out: pXC50 (antagonist) (converted)
T15 construct: gene TACR1
From the text: as §1

Adrenergic α1B = biological target: T16, Adrenergic α1B (Homo sapiens, UniProt P35368); test: cell-based; design: off-target selectivity panel, receptor antagonist, channel blocker or transporter inhibition mode, pXC50; conditions: antagonist mode; read-out: pXC50 (antagonist) (converted)
T16 construct: gene ADRA1B
From the text: as §1

Serotonin 5HT2A = biological target: T17, Serotonin 5HT2A (Homo sapiens, UniProt P28223); test: cell-based; design: off-target selectivity panel, receptor antagonist, channel blocker or transporter inhibition mode, pXC50; conditions: antagonist mode; read-out: pXC50 (antagonist) (converted)
T17 construct: gene HTR2A
From the text: as §1

NaV1.5 = biological target: T18, NaV1.5 (Homo sapiens, UniProt Q14524); test: cell-based; design: off-target selectivity panel, receptor antagonist, channel blocker or transporter inhibition mode, pXC50; conditions: read-out: pXC50 (blocker / transporter inhibition) (converted)
T18 construct: gene SCN5A
From the text: as §1

[1] = biological target: T19, L-type Ca channel (CaV1.2) (Homo sapiens, UniProt Q13936); test: cell-based; design: off-target selectivity panel, receptor antagonist, channel blocker or transporter inhibition mode, pXC50; conditions: read-out: pXC50 (blocker / transporter inhibition) (converted)
T19 construct: gene CACNA1C
From the text: as §1

hERG = biological target: T20, hERG (Homo sapiens, UniProt Q12809); test: cell-based; design: off-target selectivity panel, receptor antagonist, channel blocker or transporter inhibition mode, pXC50; conditions: read-out: pXC50 (blocker / transporter inhibition) (converted)
T20 construct: gene KCNH2
From the text: as §1

Muscarine M2 = biological target: T21, Muscarine M2 (Homo sapiens, UniProt P08172); test: cell-based; design: off-target selectivity panel, receptor antagonist, channel blocker or transporter inhibition mode, pXC50; conditions: antagonist mode; read-out: pXC50 (antagonist) (converted)
T21 construct: gene CHRM2
From the text: as §1

T15 sequence (P25103 whole entry): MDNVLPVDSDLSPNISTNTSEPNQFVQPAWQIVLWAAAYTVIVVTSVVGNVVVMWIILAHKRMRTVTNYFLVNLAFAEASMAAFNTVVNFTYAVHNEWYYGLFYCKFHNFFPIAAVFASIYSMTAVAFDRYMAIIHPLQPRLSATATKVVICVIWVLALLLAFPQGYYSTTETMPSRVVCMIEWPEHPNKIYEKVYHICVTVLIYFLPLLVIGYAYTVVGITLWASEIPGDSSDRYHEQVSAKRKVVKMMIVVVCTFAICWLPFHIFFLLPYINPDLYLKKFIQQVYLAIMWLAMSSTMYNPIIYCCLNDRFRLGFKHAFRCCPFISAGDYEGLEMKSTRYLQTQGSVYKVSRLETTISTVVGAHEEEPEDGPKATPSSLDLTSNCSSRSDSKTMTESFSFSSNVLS
T11 sequence (P07550 whole entry): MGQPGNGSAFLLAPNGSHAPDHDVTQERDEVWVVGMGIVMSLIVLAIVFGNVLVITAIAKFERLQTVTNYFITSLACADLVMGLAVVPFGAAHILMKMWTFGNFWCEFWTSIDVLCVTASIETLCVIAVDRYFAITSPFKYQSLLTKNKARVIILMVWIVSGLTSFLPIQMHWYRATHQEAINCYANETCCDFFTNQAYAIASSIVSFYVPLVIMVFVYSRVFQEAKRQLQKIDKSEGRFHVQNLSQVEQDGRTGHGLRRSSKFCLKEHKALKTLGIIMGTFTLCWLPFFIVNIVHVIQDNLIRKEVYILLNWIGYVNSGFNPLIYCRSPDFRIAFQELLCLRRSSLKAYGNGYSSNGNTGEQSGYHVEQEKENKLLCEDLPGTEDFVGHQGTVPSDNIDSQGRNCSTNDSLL
T16 sequence (P35368 whole entry): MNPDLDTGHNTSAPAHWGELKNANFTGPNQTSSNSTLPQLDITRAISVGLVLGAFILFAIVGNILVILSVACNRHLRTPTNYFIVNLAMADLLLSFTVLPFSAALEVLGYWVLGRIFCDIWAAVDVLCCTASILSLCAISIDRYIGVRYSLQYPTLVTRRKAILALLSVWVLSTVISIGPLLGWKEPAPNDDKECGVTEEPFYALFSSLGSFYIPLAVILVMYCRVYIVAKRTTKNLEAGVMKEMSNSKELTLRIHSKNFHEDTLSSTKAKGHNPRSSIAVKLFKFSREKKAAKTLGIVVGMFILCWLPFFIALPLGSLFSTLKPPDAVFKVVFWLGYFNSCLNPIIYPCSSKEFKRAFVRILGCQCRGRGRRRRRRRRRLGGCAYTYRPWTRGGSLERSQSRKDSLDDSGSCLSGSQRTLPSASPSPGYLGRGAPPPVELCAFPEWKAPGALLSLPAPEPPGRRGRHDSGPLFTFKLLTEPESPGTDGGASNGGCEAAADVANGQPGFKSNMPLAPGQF
T21 sequence (P08172 whole entry): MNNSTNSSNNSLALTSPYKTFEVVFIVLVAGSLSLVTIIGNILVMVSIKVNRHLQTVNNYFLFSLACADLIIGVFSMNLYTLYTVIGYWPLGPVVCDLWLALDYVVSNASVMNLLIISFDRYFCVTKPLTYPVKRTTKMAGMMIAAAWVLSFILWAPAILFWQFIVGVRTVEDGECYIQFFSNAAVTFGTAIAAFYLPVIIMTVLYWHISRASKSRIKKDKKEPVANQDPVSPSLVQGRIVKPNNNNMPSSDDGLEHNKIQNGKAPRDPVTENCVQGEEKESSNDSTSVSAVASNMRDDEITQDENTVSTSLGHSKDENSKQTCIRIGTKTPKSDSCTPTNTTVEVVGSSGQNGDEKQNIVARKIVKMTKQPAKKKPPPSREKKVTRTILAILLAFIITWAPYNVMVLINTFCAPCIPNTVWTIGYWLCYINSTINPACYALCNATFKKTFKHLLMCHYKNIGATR
T8 sequence (P11229 whole entry): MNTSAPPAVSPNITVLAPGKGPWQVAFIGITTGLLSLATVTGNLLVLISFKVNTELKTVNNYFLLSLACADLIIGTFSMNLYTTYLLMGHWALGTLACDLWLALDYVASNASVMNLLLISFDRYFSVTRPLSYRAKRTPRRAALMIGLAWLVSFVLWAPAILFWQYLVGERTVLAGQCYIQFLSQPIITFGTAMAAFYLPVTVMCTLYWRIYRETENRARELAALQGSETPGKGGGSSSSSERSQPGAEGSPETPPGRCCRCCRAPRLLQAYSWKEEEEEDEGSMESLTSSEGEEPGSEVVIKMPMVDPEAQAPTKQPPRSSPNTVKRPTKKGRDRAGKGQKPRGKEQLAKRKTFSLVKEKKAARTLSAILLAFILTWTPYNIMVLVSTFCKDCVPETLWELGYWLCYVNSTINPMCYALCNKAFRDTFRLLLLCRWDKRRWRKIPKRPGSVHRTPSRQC
T20 sequence (Q12809 whole entry): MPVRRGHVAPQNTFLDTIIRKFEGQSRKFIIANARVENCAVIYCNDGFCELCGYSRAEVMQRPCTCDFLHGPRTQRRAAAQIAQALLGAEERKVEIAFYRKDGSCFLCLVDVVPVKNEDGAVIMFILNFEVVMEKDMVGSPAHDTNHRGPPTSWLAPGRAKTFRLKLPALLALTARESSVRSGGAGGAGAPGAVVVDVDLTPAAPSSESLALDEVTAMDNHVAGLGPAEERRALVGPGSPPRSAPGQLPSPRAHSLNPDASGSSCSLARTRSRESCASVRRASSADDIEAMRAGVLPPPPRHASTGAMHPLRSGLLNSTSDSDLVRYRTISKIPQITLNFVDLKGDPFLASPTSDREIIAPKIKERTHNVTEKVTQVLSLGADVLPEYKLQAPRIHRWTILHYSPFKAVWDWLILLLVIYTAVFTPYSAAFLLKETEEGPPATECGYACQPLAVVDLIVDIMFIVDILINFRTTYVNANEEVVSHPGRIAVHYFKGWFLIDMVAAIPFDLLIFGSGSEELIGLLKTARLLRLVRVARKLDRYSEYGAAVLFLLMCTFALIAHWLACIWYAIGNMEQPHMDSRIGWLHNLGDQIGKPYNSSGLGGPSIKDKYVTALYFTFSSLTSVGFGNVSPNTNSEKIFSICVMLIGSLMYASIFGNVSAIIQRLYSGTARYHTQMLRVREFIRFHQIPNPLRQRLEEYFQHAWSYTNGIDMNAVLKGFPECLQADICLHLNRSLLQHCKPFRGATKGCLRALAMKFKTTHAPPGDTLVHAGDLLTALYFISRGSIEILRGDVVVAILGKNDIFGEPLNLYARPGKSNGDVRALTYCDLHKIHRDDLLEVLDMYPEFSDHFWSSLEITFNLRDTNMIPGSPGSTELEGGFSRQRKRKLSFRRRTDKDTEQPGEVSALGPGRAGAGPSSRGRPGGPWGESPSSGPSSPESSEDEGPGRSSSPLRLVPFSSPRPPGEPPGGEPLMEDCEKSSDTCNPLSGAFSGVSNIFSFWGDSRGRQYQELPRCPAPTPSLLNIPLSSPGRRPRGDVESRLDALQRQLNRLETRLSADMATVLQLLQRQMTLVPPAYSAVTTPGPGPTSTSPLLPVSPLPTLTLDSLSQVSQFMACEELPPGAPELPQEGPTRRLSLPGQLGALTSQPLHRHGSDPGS
Chain of PDE3A (Q14432 whole entry): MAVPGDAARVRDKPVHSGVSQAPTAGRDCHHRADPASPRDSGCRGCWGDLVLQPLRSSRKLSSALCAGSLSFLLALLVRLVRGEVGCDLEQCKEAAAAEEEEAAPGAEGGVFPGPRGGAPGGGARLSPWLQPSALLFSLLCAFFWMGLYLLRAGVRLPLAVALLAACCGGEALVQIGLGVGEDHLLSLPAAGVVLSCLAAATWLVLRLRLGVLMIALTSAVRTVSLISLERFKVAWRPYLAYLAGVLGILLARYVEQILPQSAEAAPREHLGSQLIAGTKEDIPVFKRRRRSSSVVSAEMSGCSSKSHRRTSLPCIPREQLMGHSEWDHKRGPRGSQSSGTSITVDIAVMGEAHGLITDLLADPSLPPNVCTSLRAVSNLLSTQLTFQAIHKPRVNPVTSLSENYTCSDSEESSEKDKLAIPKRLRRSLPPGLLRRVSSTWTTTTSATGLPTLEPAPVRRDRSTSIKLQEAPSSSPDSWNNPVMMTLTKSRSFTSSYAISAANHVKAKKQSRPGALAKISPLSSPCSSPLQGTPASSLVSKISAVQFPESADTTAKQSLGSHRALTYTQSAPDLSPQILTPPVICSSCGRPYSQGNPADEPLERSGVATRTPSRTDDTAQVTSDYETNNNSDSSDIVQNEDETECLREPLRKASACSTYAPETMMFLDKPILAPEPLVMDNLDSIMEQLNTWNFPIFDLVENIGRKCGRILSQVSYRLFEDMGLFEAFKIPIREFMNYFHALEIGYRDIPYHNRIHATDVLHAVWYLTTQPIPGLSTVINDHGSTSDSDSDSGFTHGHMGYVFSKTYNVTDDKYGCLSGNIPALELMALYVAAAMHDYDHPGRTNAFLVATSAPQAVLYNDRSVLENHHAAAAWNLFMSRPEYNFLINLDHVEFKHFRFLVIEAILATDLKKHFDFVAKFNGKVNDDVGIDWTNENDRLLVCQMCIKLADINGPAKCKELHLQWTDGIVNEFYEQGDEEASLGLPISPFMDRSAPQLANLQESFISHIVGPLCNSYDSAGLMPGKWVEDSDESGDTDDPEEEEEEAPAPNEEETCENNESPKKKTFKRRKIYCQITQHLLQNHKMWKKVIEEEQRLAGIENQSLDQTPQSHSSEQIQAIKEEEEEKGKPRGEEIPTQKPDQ
T6 sequence (P14416 whole entry): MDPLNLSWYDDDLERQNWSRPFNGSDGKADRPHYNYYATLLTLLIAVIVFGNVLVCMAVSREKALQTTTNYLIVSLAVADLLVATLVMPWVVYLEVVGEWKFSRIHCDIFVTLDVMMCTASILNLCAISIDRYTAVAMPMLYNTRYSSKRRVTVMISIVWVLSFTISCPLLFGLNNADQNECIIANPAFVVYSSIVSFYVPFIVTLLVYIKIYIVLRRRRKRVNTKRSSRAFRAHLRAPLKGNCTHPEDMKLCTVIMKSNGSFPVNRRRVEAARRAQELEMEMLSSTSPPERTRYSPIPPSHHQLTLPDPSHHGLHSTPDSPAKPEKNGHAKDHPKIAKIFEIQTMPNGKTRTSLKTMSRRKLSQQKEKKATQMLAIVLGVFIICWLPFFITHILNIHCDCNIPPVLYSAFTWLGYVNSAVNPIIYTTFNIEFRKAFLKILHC

For `CCCCS(=O)(=O)Nc1ccc2cnn(C)c2c1` [GSK3011724A], the IC50 (COX-2) was > 100 µM, the IC50 (LCK) was > 31.6 µM and the IC50 (PDE3A) was > 100 µM. The IC50 (Acetylcholinesterase) was > 100 µM, the IC50 (PI3Kγ) was > 31.6 µM and the IC50 (Histamine H1) was > 25.1 µM. For the same compound, the IC50 (Serotonin 5HT3) was > 50.1 µM, the IC50 (Dopamine D2) was > 100 µM and the IC50 (OATP1B1) was > 50.1 µM. For the same compound, the IC50 (Muscarine M1) was > 50.1 µM, the IC50 (KCNQ1/minK) was > 25.1 µM and the IC50 (NMDA Channel (NR2B)) was > 50.1 µM. The IC50 (Adrenergic β2) was > 100 µM, the IC50 (Serotonin 5HT1B) was > 100 µM and the IC50 (Vasopressin V1a) was > 50.1 µM. For the same compound, the IC50 (Kv1.5) was > 50.1 µM, the IC50 (Neurokinin NK1) was > 25.1 µM and the IC50 (Adrenergic α1B) was > 25.1 µM. For the same compound, the IC50 (Serotonin 5HT2A) was > 25.1 µM, the IC50 (NaV1.5) was > 100 µM and the IC50 [1] was > 100 µM. The IC50 (hERG) was > 63.1 µM and the IC50 (Muscarine M2) was > 50.1 µM.
